In ChEMBL document CHEMBL1201862, “PubChem BioAssay data set” (2004):
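In this assay, cells in 96-well plates receive the compound at five concentrations for 48 hours. Endpoints are linearly interpolated between the surrounding concentrations. Here, GI50 denotes the concentration required for 50% inhibition of growth.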 The source made the active and inactive calls. Rule as the data show it: active = GI50 up to about 1.1 µM and inactive = higher.

Tests used:
Assay in all cases: DTP human tumour cell line panel, 48 h
M19-MEL = tested on: M19-MEL
LXFL 529 = tested on: LXFL 529
HOP-18 = tested on: HOP-18
SNB-78 = tested on: SNB-78
DMS-273 = tested on: DMS-273
KM-20L2 = tested on: KM-20L2
RXF 631 = tested on: RXF 631
DLD-1 = tested on: DLD-1
DMS-114 = tested on: DMS-114

| SMILES | GI50 (M19-MEL) | GI50 (LXFL 529) | GI50 (HOP-18) | GI50 (SNB-78) | GI50 (DMS-273) | GI50 (KM-20L2) | GI50 (RXF 631) | GI50 (DLD-1) | GI50 (DMS-114) |
| --- | --- | --- | --- | --- | --- | --- | --- | --- | --- |
| NC1CCCCC1.O=C(O)C(CP(=O)(O)O)=C(Cl)Cl | > 100 µM (inactive) | > 100 µM (inactive) | > 100 µM (inactive) | > 100 µM (inactive) | > 100 µM (inactive) | > 100 µM (inactive) |  |  |  |
| COc1cc(C(C)c2cc3c(cc2OCCN)OCO3)cc(OC)c1OC (configuration not stated) | 39.8 µM (inactive) | 75.5 µM (inactive) |  |  | > 100 µM (inactive) | 28.8 µM (inactive) | > 100 µM (inactive) | 36 µM (inactive) | 52 µM (inactive) |
| CC(SC(=S)Nc1cccc(F)c1)C(=O)O (configuration not stated) |  | 17.9 µM (inactive) |  | 38.9 µM (inactive) | 11.8 µM (inactive) | 26.4 µM (inactive) |  |  | 15.1 µM (inactive) |
| CN(CCc1ccccn1)c1nc(=[N+](C)C)ss1 | 78.5 µM (inactive) | 72.9 µM (inactive) | > 100 µM (inactive) | > 100 µM (inactive) | > 100 µM (inactive) | > 100 µM (inactive) | > 100 µM (inactive) | > 100 µM (inactive) | > 100 µM (inactive) |
| Cc1c2c(ccc3ccccc32)c[n+]2ccccc12 |  | 5.09 µM (inactive) |  |  | 12.7 µM (inactive) | 12.6 µM (inactive) |  | 9.75 µM (inactive) | 3.24 µM (inactive) |
| COC(=O)/C(C#N)=C1\CCC(O)N1 (configuration not stated) | > 100 µM (inactive) | > 100 µM (inactive) | > 100 µM (inactive) | > 100 µM (inactive) | > 100 µM (inactive) | > 100 µM (inactive) |  | > 100 µM (inactive) | > 100 µM (inactive) |
| COc1ccc(C(=O)Nc2ccccc2C#N)cc1 | > 100 µM (inactive) |  | > 100 µM (inactive) | > 100 µM (inactive) | > 100 µM (inactive) | > 100 µM (inactive) |  | > 100 µM (inactive) |  |
| N=C(N)Cn1cnc2ccccc21 | > 100 µM (inactive) | > 100 µM (inactive) | > 100 µM (inactive) | > 100 µM (inactive) |  | > 100 µM (inactive) |  |  | > 100 µM (inactive) |
| COc1cc2ccnc([C@@H](OC(=O)c3ccccc3)c3ccc(OC)c(OC)c3OC)c2cc1OC | 73.6 µM (inactive) | 30.8 µM (inactive) | > 100 µM (inactive) | 50.5 µM (inactive) | > 10 µM (inactive) | 32.3 µM (inactive) | 50 µM (inactive) | 27.9 µM (inactive) | 33.1 µM (inactive) |
| CCNC(=O)/C(=C/c1ccc(OC)cc1)c1cc(OC)c(OC)c(OC)c1 | 14.8 µM (inactive) | 24.2 µM (inactive) | > 100 µM (inactive) | 23.1 µM (inactive) | 3.47 µM (inactive) | 3.91 µM (inactive) | 32.5 µM (inactive) | 14.7 µM (inactive) | 11.7 µM (inactive) |
| Cc1c(C(=O)C/C(=N\O)C(=O)Nc2cc(Cl)c(Cl)cc2Cl)[n+]([O-])c2ccccc2[n+]1[O-] | 2.2 µM (inactive) | 15 µM (inactive) | 20.7 µM (inactive) | 41.3 µM (inactive) | 17.1 µM (inactive) | 15.9 µM (inactive) |  | 22 µM (inactive) | 4.37 µM (inactive) |
| CC/N=C(/C#N)NCC | > 100 µM (inactive) | > 100 µM (inactive) | > 100 µM (inactive) | > 100 µM (inactive) | 44.5 µM (inactive) | > 100 µM (inactive) |  | > 100 µM (inactive) | 37.6 µM (inactive) |
| O=C(NC(=S)Nc1ccccc1)c1ccc([N+](=O)[O-])cc1 | > 100 µM (inactive) | > 100 µM (inactive) | > 100 µM (inactive) | > 100 µM (inactive) | 60.3 µM (inactive) | > 100 µM (inactive) |  | 47.9 µM (inactive) | 17.5 µM (inactive) |
| Cn1c(C2CCCc3c2c2ccccc2n3C)cc2ccccc21 (configuration not stated) | 85.5 µM (inactive) | 121 µM (inactive) | 8.02 µM (inactive) |  | 57.3 µM (inactive) | 179 µM (inactive) | 126 µM (inactive) | 126 µM (inactive) | 34.3 µM (inactive) |
| N=c1c2ccccc2sc2nc3ccccc3n12 | > 100 µM (inactive) | > 100 µM (inactive) | > 100 µM (inactive) | > 100 µM (inactive) | > 100 µM (inactive) |  |  | > 100 µM (inactive) | > 100 µM (inactive) |
| CCCCCCCCCC[C@@H](O)[C@@H]1CC[C@H]([C@H]2CC[C@@H]([C@@H](O)CCCCCCCCCC[C@H]3CC(CC(C)=O)C(=O)O3)O2)O1 (some centres not stated) | 13.9 µM (inactive) | 3.3 µM (inactive) |  | 10.9 µM (inactive) | 10.3 µM (inactive) | 14.6 µM (inactive) | 8.91 µM (inactive) | 16.6 µM (inactive) | < 0.01 µM (active) |
| C/C(=N/NC(N)=S)C(CN(C)C)C(C1=C(O)c2ccccc2OC1)c1ccccc1 (configuration not stated) | > 100 µM (inactive) | > 100 µM (inactive) | > 100 µM (inactive) | > 100 µM (inactive) | > 100 µM (inactive) | > 100 µM (inactive) |  | > 100 µM (inactive) | > 100 µM (inactive) |
| CCCCCCCCCCCC(=O)CC(=O)c1c(O)cccc1O | 18.3 µM (inactive) | 18.2 µM (inactive) | 16.4 µM (inactive) | 19.3 µM (inactive) | 18.4 µM (inactive) | 20.5 µM (inactive) |  | 17.7 µM (inactive) | 18.8 µM (inactive) |
| COc1ccc(N2C(=O)C3c4[nH]c5ccc(OC)cc5c4C4CCC(C(C)(C)C)CC4C3C2=O)cc1 (configuration not stated) | 48.5 µM (inactive) | 17.6 µM (inactive) | 44.1 µM (inactive) | 3.86 µM (inactive) | 10.2 µM (inactive) | 86.9 µM (inactive) |  | 64.7 µM (inactive) | 34.4 µM (inactive) |
| O=C(O)C1CCC(=O)N1C(=O)C(Cl)c1ccccc1 (configuration not stated) | > 100 µM (inactive) | > 100 µM (inactive) | > 100 µM (inactive) | > 100 µM (inactive) | > 100 µM (inactive) | > 100 µM (inactive) | > 100 µM (inactive) | > 100 µM (inactive) | > 100 µM (inactive) |
| OCCSCC/C(=N\N=C(/CCSCCO)c1ccccc1)c1ccccc1 | > 100 µM (inactive) | 82 µM (inactive) | > 100 µM (inactive) | > 100 µM (inactive) |  | 49.9 µM (inactive) | 65.8 µM (inactive) | > 100 µM (inactive) | > 100 µM (inactive) |
| C=CCN1C(=O)C(=O)N(CC=C)C(=O)C1=O | > 100 µM (inactive) | > 100 µM (inactive) |  | > 100 µM (inactive) | > 100 µM (inactive) | > 100 µM (inactive) |  | > 100 µM (inactive) | > 100 µM (inactive) |
| C/C=C(/C)C(=O)O[C@H]1[C@H](O)CC(c2ccc3c(c2O)C(=O)C2=C(O)C4(OC)C(=O)C(C(N)=O)=C(O)[C@H](CC(=O)c5ccccc5O)C4CC2[C@@]3(C)OC)O[C@@H]1C (some centres not stated) | 0.01 µM (active) | 0.01 µM (active) | 0.01 µM (active) |  | 0.01 µM (active) | 0.01 µM (active) |  | 0.01 µM (active) | 0.01 µM (active) |
